Experimental data published in patent publication US20120046273A1, “COMPOUNDS AND COMPOSITIONS FOR COGNITION-ENHANCEMENT, METHODS OF MAKING, AND METHODS OF TREATING” (MITHRIDION, INC., priority 2009, published 2012).

Columns and labels:
[1] = molecular target: T1, human muscarinic M3 receptors (Homo sapiens, UniProt P20309); assay: Inositol phosphate production in huM3/A9L cells (IPOne TR-FRET); assay type: cell-based; conditions: for huM3/A9L Smax: percentage of maximal stimulation by carbachol; for huM3/A9L ED50 relative to CCh: potency relative to carbachol
T1 construct: expressed in transfected cells; host or cells: A9L cells (gift from Professor W Messer)
Method: (§1) Muscarinic M1 and M3 agonist activity was evaluated by measuring the stimulation of inositol phosphate (IP) production in the presence of lithium chloride from A9L cells transfected with expression plasmids containing human muscarinic M1 and M3 receptors, respectively. The cell lines were a gift from Professor W Messer, and the methods were as described in Tejada F R et al. J. Med. Chem. 2006; 49: 7518-31 except that the assay was scaled down to run in 384 well plates, and IP was measured in the cell lysates using the non-isotopic IPOne TR-FRET assay (CIS-BIO, Inc).
(§2) Cells were grown to 90% confluence in 384 well hi-base plates (Greiner Bio-One), compounds were added at suitable concentrations in growth medium containing 10 mM LiCL, buffered with an extra 10 mM HEPES (pH7.4), and incubated for 60 minutes at 37° C. Cells were lysed and assayed for IP following the manufacturer's instructions.
(§3) The value for a full agonist is 100%, while partial agonists give values below 100%.

[2] = molecular target: T2, human muscarinic M1 receptors (Homo sapiens, UniProt P11229); assay: Inositol phosphate production in huM1/A9L cells (IPOne TR-FRET); assay type: cell-based; conditions: for huM1/A9L Smax: percentage of maximal stimulation by carbachol; for huM1/A9L ED50 relative to CCh: potency relative to carbachol
T2 construct: expressed in transfected cells; host or cells: A9L cells (gift from Professor W Messer)
T2 sequence (P11229 1-460): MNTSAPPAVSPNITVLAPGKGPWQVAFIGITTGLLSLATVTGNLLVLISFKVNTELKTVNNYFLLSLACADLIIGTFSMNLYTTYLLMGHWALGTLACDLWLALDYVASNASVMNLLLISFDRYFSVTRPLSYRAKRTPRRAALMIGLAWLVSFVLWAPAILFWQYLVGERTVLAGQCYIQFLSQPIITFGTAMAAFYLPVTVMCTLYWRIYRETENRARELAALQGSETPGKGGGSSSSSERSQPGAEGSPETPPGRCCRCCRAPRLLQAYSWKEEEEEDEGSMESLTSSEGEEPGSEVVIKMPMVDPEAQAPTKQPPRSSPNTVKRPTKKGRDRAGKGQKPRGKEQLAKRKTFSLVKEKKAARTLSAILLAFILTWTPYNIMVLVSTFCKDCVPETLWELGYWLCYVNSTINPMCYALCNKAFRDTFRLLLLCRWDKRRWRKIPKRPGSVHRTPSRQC
Method: as §1, §2, §3

[3] = system: pooled male Sprague-Dawley rat liver microsomes; assay: Metabolism by rat liver microsomes; assay type: in vitro ADME; conditions: 6 hours incubation
Method: (§4) Compounds were incubated with pooled male Sprague-Dawley rat liver microsomes (BD Biosciences, #452501) and an NADP-regenerating system in a phosphate buffer (pH 7.4) for a total of 6 hours. Aliquots were removed every 2 hours, and 1% formic acid was added to halt the reaction. Samples were centrifuged, filtered through 0.2 micron spinfilter and the amount of each compound in the supernatants was quantitated using LC/MS/MS.

[4] = system: pooled male human liver microsomes; assay: Metabolism by human liver microsomes; assay type: in vitro ADME; conditions: for extent of metabolism in human liver microsomes: 6 hours incubation; for rate of metabolism compared with the other enantiomer: human liver microsomes, as also in rat liver microsomes and FMO Supersomes
Method: as §4, with “human” for “Sprague-Dawley rat”, “#452172)” for “#452501)”

[5] = system: apomorphine induced climbing; assay: Apomorphine induced climbing model of psychosis; assay type: in vivo, CD-I mice; conditions: mice, sc
Method: As described in Costall et. al. European Journal of Pharmacology 1978, 50, 39. individual CD-I mice, 1-2 months old, were placed in a cylindrical wire mesh cage (13.2 cm high×13.2 cm diameter) constructed of steel wire 1 mm thick spaced at 1.2 cm^2. Cylinders were placed in a standard OptiMICE mouse cage (29×32×9×29 cm wide and 14 cm high) with adequate wood chip bedding provided. Observations of climbing (defined as 3 or more paws off the ground) were carried out every 5 minutes at a duration of 1 minute for 30 minutes. Animals were injected subcutaneously under isoflurane anesthesia with test compounds, reference compounds, which included clozapine, haloperidol, olanzapine and xanomeline, or PBS as a control. This was followed 5 minutes later by 2 mg/kg apomorphine hydrochloride. All drugs were dissolved in PBS or a mixture of (by volume) 96% PBS and 4% hydroxypropyl-beta-cyclodextrin, and dosed at a rate of 5 ml per kilogram of body weight. Following injections, animals were replaced in the mesh cages and observed for climbing (defined as 3 or more paws off the ground) every 5 minutes for a duration of 1 minute for 60 minutes after dosing.

T1 sequence (P20309 whole entry): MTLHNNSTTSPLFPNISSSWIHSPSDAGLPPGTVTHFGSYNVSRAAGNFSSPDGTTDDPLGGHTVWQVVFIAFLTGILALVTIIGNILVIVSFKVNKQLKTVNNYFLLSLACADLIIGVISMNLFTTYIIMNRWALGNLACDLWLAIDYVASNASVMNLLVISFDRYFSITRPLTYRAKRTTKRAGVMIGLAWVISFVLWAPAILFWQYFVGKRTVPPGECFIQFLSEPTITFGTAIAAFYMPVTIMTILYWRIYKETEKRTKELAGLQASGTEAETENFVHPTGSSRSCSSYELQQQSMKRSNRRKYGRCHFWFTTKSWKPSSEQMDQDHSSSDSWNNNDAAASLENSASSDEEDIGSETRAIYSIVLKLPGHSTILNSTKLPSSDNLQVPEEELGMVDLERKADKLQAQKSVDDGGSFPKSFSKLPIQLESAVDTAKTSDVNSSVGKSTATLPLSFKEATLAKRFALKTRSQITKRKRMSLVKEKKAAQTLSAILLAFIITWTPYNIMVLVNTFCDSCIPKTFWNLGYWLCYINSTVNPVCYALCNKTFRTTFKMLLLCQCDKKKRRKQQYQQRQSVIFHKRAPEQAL

Row | SMILES | huM3/A9L Smax [1] | huM3/A9L ED50 relative to CCh [1] | huM1/A9L Smax [2] | huM1/A9L ED50 relative to CCh [2] | PAMPA (? × 106) (PAMPA test) | rate of crossing the lipid layer in the PAMPA test (PAMPA test) | extent of metabolism in rat liver microsomes [3] | extent of metabolism in human liver microsomes [4] | rate of metabolism compared with the other enantiomer [4] | activity in the apomorphine induced climbing model [5]
1 | Cc1noc(C2CCC(C)NC2)n1 (stereo not shown) [Compound 102, 3-Methyl-5-(6-methylpiperidin-3-yl)-1,2,4-oxadiazole] | 18% | inactive | 14% | inactive |  |  |  |  |  | 
2 | Cc1noc([C@@H]2CCCN[C@@H]2C)n1 [Compound 108] | 32% | inactive | 41% | −− (potency <0.1x CCh) |  |  |  |  |  | 
3 | Cc1noc([C@H]2CCCN[C@@H]2C)n1 [Compound 109] | 20% | inactive | 3% | inactive |  |  |  |  |  | 
4 | Cc1noc(C2CCNC2)n1 (stereo not shown) [Compound 115, 3-methyl-5-(pyrrolidin-3-yl)-1,2,4-oxadiazole] |  | − (potency <0.5-0.1x CCh) |  | + (potency 2-10x CCh) |  |  |  |  |  | 
5 | Cc1noc(C2(F)CCCNC2)n1 (stereo not shown) [Compound 118, 5-(3-fluoropiperidin-3-yl)-3-methyl-1,2,4-oxadiazole] |  | −− (potency <0.1x CCh) |  | − (potency <0.5-0.1x CCh) | 16.3 ? × 106 | highest rate of penetration |  |  |  | 
6 | [2H]C([2H])([2H])c1noc(C2CCCNC2)n1 (single isomer, unassigned) [Compound 89, 3-(methyl-d3)-5-(piperidin-3-yl)-1,2,4-oxadiazole] | 86% | +/− (potency 0.5-2x CCh) | 90% | + (potency 2-10x CCh) |  |  | far more stable than compounds 126 and 127 | metabolized significantly less in human liver microsomes than in rat liver microsomes | metabolized faster than the enantiomers | potent and effective
7 | CCc1noc(C2CCCNC2)n1 (stereo not shown) [Compound 128, 3-ethyl-5-(piperidin-3-yl)-1,2,4-oxadiazole, reference compound] | <14% | inactive | 15% | inactive |  |  |  |  |  | 
8 | Cc1noc([C@@H]2CNC[C@@H](C)C2)n1 [Compound 105] | 14% | inactive | 18% | inactive |  |  |  |  |  | 
9 | Cc1noc([C@H]2CC[C@H](C)NC2)n1 [Compound 103] | 34% | inactive | 15% | inactive |  |  |  |  |  | 
10 | [2H]C([2H])([2H])c1noc(C2CCCNC2)n1 (single isomer, unassigned) [Compound 90, 3-(methyl-d3)-5-(piperidin-3-yl)-1,2,4-oxadiazole] | 76% | −− (potency <0.1x CCh) | 81% | +/− (potency 0.5-2x CCh) |  |  | far more stable than compounds 126 and 127 | metabolized significantly less in human liver microsomes than in rat liver microsomes |  | 
11 | Cc1noc([C@H]2CNC[C@@H](C)C2)n1 [Compound 104] | 20% | inactive | 9% | inactive |  |  |  |  |  | 
12 | Cc1noc(C2CCCN(C)C2)n1 (stereo not shown) [Compound 86, 3-Methyl-5-(1-methylpiperidin-3-yl)-1,2,4-oxadiazole] | 20% | inactive | 20% | inactive |  |  |  |  |  | 
13 | Cc1noc(C2CCCNC2)n1 (single isomer, unassigned) [Compound 83, 3-methyl-5-(piperidin-3-yl)-1,2,4-oxadiazole] | 47% | − (potency <0.5-0.1x CCh) | 147% | +/− (potency 0.5-2x CCh) |  |  | far more stable than compounds 126 and 127 | metabolized significantly less in human liver microsomes than in rat liver microsomes | metabolized faster than the enantiomers | potent and effective
14 | Nc1noc(C2CCCNC2)n1 (stereo not shown) [Compound 111, 3-Amino-5-(piperidin-3-yl)-1,2,4-oxadiazole] | 20% | +/− (potency 0.5-2x CCh) | 97% | + (potency 2-10x CCh) |  |  |  |  |  | 
15 | Cc1noc(C2CCCNC2)n1 (single isomer, unassigned) [Compound 84, 3-methyl-5-(piperidin-3-yl)-1,2,4-oxadiazole] | 66% | +/− (potency 0.5-2x CCh) | 129% | + (potency 2-10x CCh) |  |  | far more stable than compounds 126 and 127 | metabolized significantly less in human liver microsomes than in rat liver microsomes |  | 
